The subject of data set [1] is TNFα mRNA. The data set is described as follows: LPS-induced TNFα mRNA expression in RAW 264.7 cells (RT-qPCR). The class given is cell-based, mouse. Conditions: for reduction of LPS induction of TNFα mRNA expression: 3 μM, LPS 100 ng/ml 1 h; for suppression of LPS-stimulated TNFα mRNA expression: pre-incubated with 3 μM isoflavonoid prior to the stimulation. How it is done:
To assess TNFα mRNA expression, RAW 264.7 cells were plated in 6-well plates in alpha-MEM medium supplemented with 10% DCC-FBS, at a density of 300,000 cells per well, maintained in culture for 72 h and then exposed to vehicle (0.3% DMSO) or 3 μΜ test compound for 20 min or 24 h prior to stimulation with 100 ng/ml lipopolysaccharide (Sigma L4391) for 1 h. Extraction of total RNA, reverse transcription (RT) and quantitative PCR (qPCR) analysis of mRNA expression levels were performed as previously described. Relative gene expression levels were calculated by the comparative Ct method using the formula 2^(-ΔCt). Tumor necrosis factor alpha (TNFα) mRNA levels were normalized to the respective levels of […] (GAPDH). Test compound effects on the relative number of viable cells were assessed using crystal violet and a Safire II microplate reader (Tecan) as previously described. […] The following primers were used: […]
(Quantitative PCR measures a nucleic acid by following its amplification.)

For data set [2], the system named is Ishikawa cells. The data set is described as follows: Induction of AlkP expression in Ishikawa cells. Conditions: for Induction of Alkaline Phosphatase Expression (Ishikawa cells) AUC (%): % of AUC of luciferase response of archetypal 3, 4, 5 or 8 up to 0.3, 10, 1.0 and 3.0 μM; for EC (25% of 0.1 nM E2 effect) / activation at 1 µM / EC50: Homo sapiens, Ishikawa; for EC (25% of 0.1 nM E2 effect) / activation at 1 µM: 72 h; for EC (25% of 0.1 nM E2 effect): concentration required to achieve 25% of the effect of 0.1 nM E2, read-out: Induction of Alkaline Phosphatase Expression (Ishikawa cells) EC25E2; for activation at 1 µM: read-out: Induction of AlkP expression (Ishikawa cells) Agonism at 1μΜ (% of 0.1nM E2); for EC50: concentration required to achieve 50% of the effect of 0.1 nM E2, read-out: Induction of Alkaline Phosphatase Expression (Ishikawa cells) EC50E2; for AlkP-inducing agonist effect compared to the effect of 0.1 nM estradiol: isoflavonoids 1 μM, statistically significant effects. The data set is classed as cell-based, human. In a few lines:
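Ishikawa cells at 12,000 per well were grown in phenol-red-free MEM with 1 μg/mL insulin and 5% DCC-FBS, as an estrogenic read-out. AlkP activity versus isoflavonoid concentration was curve-fitted and AUC derived. AUC was expressed as % of the luciferase-response AUC of the matching archetypal isoflavone.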

Data set [3] relates to RAW 264.7 cells. The data set is described as follows: Differentiation of RAW 264.7 cells to osteoclasts, TRAP activity. The data set is classed as cell-based, mouse. Conditions: RANKL 50 ng/ml + E2 1 nM or compound 1 μM; 3 days; DF plus vehicle = 100. As for the experimental part:
Clones of RAW 264.7 cells competent to differentiate to multinuclear osteoclasts upon activation with RANKL provide valuable information on the regulation of osteoclast differentiation. Differentiation-competent RAW cells (ATCC TIB-71) were seeded in 96-well plates at a density of 9,600 cells per well. The cells were plated in the presence of test compounds or compound diluent (0.1% DMSO) and, 4 h after plating, were exposed for 3 days to 50 ng/ml RANKL or to plain medium. Osteoclastic differentiation was assessed via induction of Tartrate-Resistant Acid Phosphatase (TRAP) activity. The cells were washed with PBS and incubated with 25μl lysis buffer (0.4 M NaCl, 25 mM Hepes pH 7.7, 1.5 mM MgCl2, 0.2 mM EDTA, 1% NP40) for 5 min on ice.

For data set [4], the system named is HT22 cells. The data set is described as follows: Glutamate toxicity (oxytosis) of HT22 neuronal cells (MTT). Conditions: 1 nM estradiol or 1 μM compound; for viability of HT22 cells under normal growth conditions compared to vehicle-treated cells: no glutamate; for viability of glutamate-treated HT22 cells (% of glutamate-free cells): 5 mM glutamate 24 h. As for the experimental part:
Glutamate-challenged HT22 cells suffer oxidative stress-induced cell death (oxytosis) within 24 h due to glutathione depletion and consequent massive accumulation of ROS [42]. The efficacy of test compounds to prevent oxytosis of HT22 cells was assessed as already described. Briefly, HT22 cells were plated in 96-well flat bottom plates at a density of 4,000 cells per well in 100 μl of DMEM (low glucose) containing 2% FBS. 24 h after plating, the cells were treated with test compounds or compound diluent (0.1% DMSO) and then challenged with 5 mM glutamate for 24 h. […] Non-challenged cells served to assess test compound effects on cell viability, whereas challenged cells served to assess the neuroprotective activity of test compounds.

Data set [5] has as its system MC3T3-E1 cells. The data set is described as follows: Mineralization of MC3T3-E1 cells, Alizarin red staining. The data set is classed as cell-based, mouse. Conditions: DF + E2 1 nM or compound 1 μM; 21 days; DF plus vehicle = 100. How it is done: Differentiation of MC3T3-E1 cells to osteoblasts has been extensively used to screen for compounds that may promote bone formation. Differentiation of MC3T3-E1 cells was carried out in 96-well plates using 3,300 cells per well and was assessed via induction of, i) Alkaline Phosphatase (AlkP) activity after 6 days of treatment and, ii) mineralization of extracellular matrix after 21 days of treatment. Briefly, 24 h after plating, the cells were incubated with test compounds or vehicle i.e. the compound diluent (0.1% DMSO) and then exposed for 6 days to differentiation medium in presence or absence of differentiation factors (cf. Cell culture) with a change to fresh compounds and medium in 3 days. AlkP activity was assessed at 405 nm in a Safire II microplate reader using as substrate p-nitrophenyl-phosphate (pNPP, Sigma-Aldrich) as already described. Mineralization of MC3T3 cells was assessed by staining with Alizarin red (Fluka). Cells were cultured and treated as described above for 21 days, with media and test compounds changed every 3 days, and calcium phosphate deposition was assayed as described by Gregory et al.. Briefly, the cells were washed twice with PBS and fixed with 70% ethanol for 15 min on ice. The cells were stained with Alizarin red solution (40 mM, pH 4.2) for 30 min at room temperature, washed twice with distilled water and once with PBS. The dye from the stained mineral deposits was extracted with 33% acetic acid and the absorbance was measured at 405 nm using a Safire II microplate reader (Tecan).

In data set [6] the target is ERβ (Homo sapiens, UniProt Q92731). The data set is described as follows: ERE-dependent luciferase gene transcription in HEK:ERβ cells. Conditions: 18 h. The data set is classed as cell-based. Also on record: expressed in transfected cells; host or cells: HEK-293 (HEK:ERβ clone, with pERE-tk-Luciferase).

Experimental findings from publication PMC6324813, “Biological evaluation of isoflavonoids from Genista halacsyi using estrogen-target cells: Activities of glucosides compared to aglycones” (PLoS ONE, 2019) are described below.

Some results are limits rather than exact numbers.

ERβ, sequence (Q92731 whole entry): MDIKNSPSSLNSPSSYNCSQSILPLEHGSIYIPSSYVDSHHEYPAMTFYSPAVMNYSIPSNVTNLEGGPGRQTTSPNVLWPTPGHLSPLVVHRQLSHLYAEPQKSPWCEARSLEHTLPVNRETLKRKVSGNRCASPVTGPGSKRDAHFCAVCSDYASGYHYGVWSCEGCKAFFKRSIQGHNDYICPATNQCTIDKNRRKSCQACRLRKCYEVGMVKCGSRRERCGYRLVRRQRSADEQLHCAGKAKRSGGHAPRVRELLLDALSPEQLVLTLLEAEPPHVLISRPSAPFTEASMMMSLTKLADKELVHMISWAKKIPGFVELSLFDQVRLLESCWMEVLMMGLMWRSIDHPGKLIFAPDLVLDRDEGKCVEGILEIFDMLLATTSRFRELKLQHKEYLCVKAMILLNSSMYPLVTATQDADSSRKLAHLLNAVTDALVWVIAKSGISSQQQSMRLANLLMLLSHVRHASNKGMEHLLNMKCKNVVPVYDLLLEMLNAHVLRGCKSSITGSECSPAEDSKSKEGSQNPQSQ

Consider `O=c1c(-c2ccc(OC3O[C@H](CO)[C@@H](O)[C@H](O)[C@H]3O)cc2)coc2cc(OC3O[C@H](CO)[C@@H](O)[C@H](O)[C@H]3O)cc(O)c12` (some centres unmarked) [Compound 11, 7,4΄-di-O-glucopyranosylgenistein], for which the “reduction of LPS induction of TNFα mRNA expression” value (“reduction” for short) in data set [1] (pre-treatment 20 min) is reported as 30%. The “reduction” value in data set [1] (pre-treatment 24 h) worked out at 29%. Moreover, in data set [1], the “suppression of LPS-stimulated TNFα mRNA expression” value is ~ 30%. For the same compound, in data set [2], the “Induction of Alkaline Phosphatase Expression (Ishikawa cells) AUC (%)” value came to 66±5%, the EC (25% of 0.1 nM E2 effect) came out at 0.09 ± 0.01 µM, the activation at 1 µM was 105 ± 9% and the EC50 was 160 ± 20 nM. For the same compound, the “AlkP-inducing agonist effect compared to the effect of 0.1 nM estradiol” value in data set [2] was “very similar to estradiol”. The “Ratio of AUC (AlkP / Lucif)” value in data set [2] (AUCAlkP / AUCluciferase) turned out to be 0.88±0.06. The “Differentiation of RAW 267.4 cells, TRAP expression (%)” value in data set [3] was 112±9%. In data set [4], the “viability of HT22 cells under normal growth conditions compared to vehicle-treated cells” value is recorded as “not different” and the “viability of glutamate-treated HT22 cells (% of glutamate-free cells)” value is at most 40%. In addition, in data set [5], the “Differentiation of MC3T3-E1 cells, Alizarin red staining (%)” value is given as 120±5%. The activation at 1 µM in data set [6] (read-out: Induction of luciferase gene transcription through ERβ, HEK:ERβ cells, Agonism at 1μΜ (% of 0.1nM E2)) amounted to 80 ± 20%.

In the case of `O=c1c(-c2ccc(O)cc2)coc2cc(O[C@@H]3O[C@H](CO)[C@@H](O)[C@H](O)[C@H]3O)cc(O)c12` [Compound 12, 7-O-β-D-glucopyranosyl-genistein], in data set [1] (pre-treatment 24 h), the “reduction” value came to 20%. In data set [1], the “suppression of LPS-stimulated TNFα mRNA expression” value is “marginally effective”. Also, in data set [2], the “Induction of Alkaline Phosphatase Expression (Ishikawa cells) AUC (%)” value was found to be 110±10%, the EC (25% of 0.1 nM E2 effect) worked out at 0.05 ± 0.01 µM, the activation at 1 µM came to 101 ± 5% and the EC50 amounted to 70 ± 10 nM. Further, the “AlkP-inducing agonist effect compared to the effect of 0.1 nM estradiol” value in data set [2] was “very similar to estradiol”. Besides, the “Differentiation of RAW 267.4 cells, TRAP expression (%)” value in data set [3] is 110±5%. In data set [4], the “viability of HT22 cells under normal growth conditions compared to vehicle-treated cells” value was “not different” and the “viability of glutamate-treated HT22 cells (% of glutamate-free cells)” value was at most 40%. The “Differentiation of MC3T3-E1 cells, Alizarin red staining (%)” value in data set [5] was found to be 137±14%. Further, the “Induction of luciferase gene transcription through ERβ, HEK:ERβ cells, Agonism at 1μΜ (% of 0.1nM E2)” value in data set [6] (compounds 1 μM, estradiol 0.1 nM) is 121 ± 18 (Full) % of 0.1nM E2.
